The record followed here is patent US7057048B2, “Androgen receptor antagonists” (Warner Lambert Company LLC, priority 2003, dated 2006).

Each structure is given as a SMILES string.

The term IC50 denotes the concentration that inhibits the measured activity by half.

The experiment concerns the target T1, androgen receptor (Homo sapiens, UniProt P10275).
T1 sequence (P10275 1-920 Q868H): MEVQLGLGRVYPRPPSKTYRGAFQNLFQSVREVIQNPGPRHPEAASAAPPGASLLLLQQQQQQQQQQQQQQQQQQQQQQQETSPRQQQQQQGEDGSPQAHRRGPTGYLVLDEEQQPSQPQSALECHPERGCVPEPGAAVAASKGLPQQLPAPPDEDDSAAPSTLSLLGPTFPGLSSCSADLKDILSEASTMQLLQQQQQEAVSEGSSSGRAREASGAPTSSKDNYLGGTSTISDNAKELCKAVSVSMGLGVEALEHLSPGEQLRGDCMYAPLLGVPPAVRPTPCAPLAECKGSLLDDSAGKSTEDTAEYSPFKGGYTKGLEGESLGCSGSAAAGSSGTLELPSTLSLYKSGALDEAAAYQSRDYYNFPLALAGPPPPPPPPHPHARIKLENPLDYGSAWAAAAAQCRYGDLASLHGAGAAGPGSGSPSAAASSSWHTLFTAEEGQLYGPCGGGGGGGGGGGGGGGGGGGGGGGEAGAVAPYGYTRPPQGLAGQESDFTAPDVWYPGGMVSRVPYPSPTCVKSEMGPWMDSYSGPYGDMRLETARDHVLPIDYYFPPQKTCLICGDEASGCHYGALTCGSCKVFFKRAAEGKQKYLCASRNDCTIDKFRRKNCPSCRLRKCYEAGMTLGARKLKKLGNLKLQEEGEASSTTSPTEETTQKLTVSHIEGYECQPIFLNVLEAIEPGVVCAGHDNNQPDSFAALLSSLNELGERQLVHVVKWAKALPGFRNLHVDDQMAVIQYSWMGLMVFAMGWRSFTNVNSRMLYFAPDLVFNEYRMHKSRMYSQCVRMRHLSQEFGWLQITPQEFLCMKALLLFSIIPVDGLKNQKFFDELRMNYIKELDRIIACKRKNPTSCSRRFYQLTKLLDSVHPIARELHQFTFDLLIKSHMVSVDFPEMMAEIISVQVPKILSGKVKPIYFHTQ
Description: AR Antagonist Cell Assay (MMTV-luciferase reporter, DHT-stimulated). Conditions: MDA-MB453-MMTV clone 54-19 cells, inhibition of induction by 100 pM DHT, 17 hr. It is filed as cell-based. As for the experimental part:
The compounds ability to antagonize the effects of androgen on the androgen receptor were determined in the protocol described immediately below.
Experimental Procedure for AR Antagonist Cell Assay
Cell line: MDA-MB453-MMTV clone 54-19. This cell line is a stable transfected cell line with MDA-MB453 cell background (human breast tumor cell expressing high level of androgen receptor). A MMTV minimal promoter containing ARE was first cloned in front of a firefly luciferase reporter gene. Then the cascade was cloned into transfection vector pUV120puro. Electroporation method was used for transfecting MDA-MB-453 cell. Puromycin resistant stable cell line was selected.
Cell Culture Media and Reagents:
Culture medium: DMEM (high glucose, Gibco cat #: 11960-044), 10% FBS, and 1% L-glutamine
Plating medium: DMEM (phenol red free), 10% charcoal treated HyClone serum, 1% L-glutamine
Assay medium: DMEM (phenol red free), 1% charcoal treated HyClone serum, 1% L-glutamine, and 1% penicillin/streptomycin
3×luciferase buffer: 2% beta-mercaptoethanol, 0.6% ATP, 0.0135% luciferine in cell lysis buffer
• 1. Cells are maintained in culture medium, splitting cells when they reach 80–90% confluence • 2. To test compounds, 10,000 cells/well are plated to opaque 96 cell culture plate in 100 ul/well plating medium, culture for overnight at 37° C. in cell culture incubator • 3. Carefully remove plating medium, then add 80 ul/well of pre-warmed assay medium, add 10 ul/well testing compound (final concentration at 10 uM or 1 uM), incubate at 37° C. for 30 minutes • 4. Add 10 ul/well freshly prepared DHT (final concentration at 100 pM) to each well, incubate at 37° C. for 17 hr (overnight) • 5. Add 50 ul/well 3×luciferase buffer, incubate at room temperature for 5 minutes, then count on Luminometer
The fold induction over background by 100 pM DHT in the absence of testing compounds is standardized as 100% and experimental result is expressed as percentage of inhibition by testing compounds.
Background: A reporter such as luciferase makes a cellular process visible.
Consider `O=c1cc(C(F)(F)F)c2cc(Cc3ccc(S(=O)(=O)N4CCCC4)cc3)ccc2[nH]1` [Example 20, 6-[4-(Pyrrolidine-1-sulfonyl)benzyl]-4-trifluoromethyl-1H-quinolin-2-one], for which the IC50 is > 10 µM.

In the case of `CC1CN(S(=O)(=O)c2ccc(Cc3ccc4[nH]c(=O)cc(C(F)(F)F)c4c3)cc2)CC(C)O1` (stereo not shown) [Example 24, 6-[4-(2,6-Dimethylmorpholine-4-sulfonyl)benzyl]-4-trifluoromethyl-1H-quinolin-2-one], inhibition was half-maximal at 6.5 µM (IC50).

In turn, `O=c1cc(C(F)(F)F)c2cc(Cc3ccc(S(=O)(=O)N4CCN(CCO)CC4)cc3)ccc2o1` [Example 43, 6-{4-[4-(2-Hydroxyethyl)piperazine-1-sulfonyl]benzyl}-4-trifluoromethylchromen-2-one] gave an IC50 of 8.9 µM.

Regarding `CC1CCCCN1S(=O)(=O)c1ccc(Cc2ccc3[nH]c(=O)cc(C(F)(F)F)c3c2)cc1` (stereo not shown) [Example 22, 6-[4-(2-Methylpiperidine-1-sulfonyl)benzyl]-4-trifluoromethyl-1H-quinolin-2-one], the IC50 was > 10 µM.

Consider `O=c1cc(C(F)(F)F)c2cc(Cc3ccc(S(=O)(=O)N4CCCC(CO)C4)cc3)ccc2o1` (stereo not shown) [Example 45, 6-[4-(3-Hydroxymethyl-piperidine-1-sulfonyl)benzyl]-4-trifluoromethylchromen-2-one], for which the IC50 worked out at 7.6 µM.

On to `O=c1cc(C(F)(F)F)c2cc(Cc3ccc(S(=O)(=O)N4CCCCCCC4)cc3)ccc2o1` [Example 63, 6-[4-(Azocane-1-sulfonyl)benzyl]-4-trifluoromethylchromen-2-one], for which the 50% inhibitory concentration (IC50) is > 10 µM.

For the molecule `CCOC(=O)C1CCCN(S(=O)(=O)c2ccc(Cc3ccc4oc(=O)cc(C(F)(F)F)c4c3)cc2)C1` (stereo not shown) [Example 28, 1-[4-(2-Oxo-4-trifluoromethyl-2H-chromen-6-ylmethyl)-benzenesulfonyl]piperidine-3-carboxylic acid ethylester], the IC50 was > 10 µM.
